This passage reports remaining activity results from patent US8962244B2, “Compounds for modulating RNA binding proteins and uses therefor” (University of Massachusetts, priority 2009, dated 2015).

The target in this test is T1, POS-1 (Caenorhabditis elegans, UniProt G5EF15).
T1 construct: 6-his tag (N); made in house; host or cells: E. coli BL21 (DE3) Gold
T1 sequence (G5EF15 80-180): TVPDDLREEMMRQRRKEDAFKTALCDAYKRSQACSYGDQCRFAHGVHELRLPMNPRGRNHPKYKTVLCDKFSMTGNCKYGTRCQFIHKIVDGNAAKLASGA
The test can be described thus: Fluorescence polarization screening of POS-1 binding to fluorescein-labeled BMF018 RNA. To be noted: 192 μM test compound; score = polarization relative to no-drug and no-protein controls; 0.25 = 75% inhibition; lowest score = greatest inhibition; read-out: POS-1 score. A general note: Fluorescence polarisation rises when a labelled molecule tumbles more slowly, as on binding a larger partner.

SMILES strings stand for the structures.

`O=C(NC1CCCCCC1)c1ccc(I)cc1` [CW]: the remaining activity at 192 µM was 3.98%.

On to `O=C(NC(=S)Nc1ccccc1C(=O)O)c1ccc(-c2ccc(Cl)cc2)o1` [EO], for which the remaining activity at 192 µM worked out at 25.4%.

Turning to `CCOc1ccc(C(=O)NC(=S)Nc2ccc(C(=O)O)c(Cl)c2)cc1Br` [DK], the remaining activity at 192 µM came to 14.3%.

Consider `O=C(Nc1cc(NC(=O)c2ccccc2)cc(C(=O)Nc2ccc(O)cc2C(=O)O)c1)c1ccccc1` [DQ], for which the remaining activity at 192 µM was 17.2%.

For the molecule `CCCC(=O)NC(c1ccc(Cl)cc1)c1cc([N+](=O)[O-])c2cccnc2c1O` (centres unmarked) [EU], the remaining activity at 192 µM is 26.6%.

On to `Cc1cc(NS(=O)(=O)c2ccc(NC(=O)c3ccc(C(C)(C)C)c(Br)c3)cc2)no1` [DP], for which the remaining activity at 192 µM came out at 16.8%.

As to `Cc1cc(OCC(=O)Nc2ccc(S(=O)(=O)Nc3nccs3)cc2)ccc1Br` [DT], the remaining activity at 192 µM amounted to 17.7%.

On to `O=C(NC(=S)Nc1ccc(C(=O)O)c(Cl)c1)c1ccc(Cl)c(Cl)c1` [DZ], for which the remaining activity at 192 µM is 20.1%.

As to `CC(C)(C)c1ccc(C(=O)Nc2ccc(S(=O)(=O)Nc3nccs3)cc2)cc1Br` [EV], the remaining activity at 192 µM was found to be 27.5%.

Turning to `Cc1c(C(=O)NC(=S)Nc2cc(C(=O)O)ccc2Cl)cccc1[N+](=O)[O-]` [ER], the remaining activity at 192 µM was 26.2%.

Turning to `O=C(NC(=S)Nc1ccccc1C(=O)O)c1cc(I)ccc1Cl` [DV], the remaining activity at 192 µM came to 18.5%.

Take `Cc1ccc(CC(=O)Nc2ccc(S(=O)(=O)Nc3nccs3)cc2)cc1` [EK]: the remaining activity at 192 µM is 23.7%.

As for `Sc1nnc(-c2cc(-c3ccccc3)nc3ccccc23)o1` [EM], the remaining activity at 192 µM worked out at 24.2%.

Turning to `CCOc1cc(/C=C2\C(=O)N(c3ccc(C(=O)O)cc3)N=C2C)ccc1OC(=O)c1cccs1` [EE], the remaining activity at 192 µM amounted to 22.5%.

With `COc1ccc(S(=O)(=O)Nc2ccc(C)cc2NS(=O)(=O)c2ccc(OC)cc2)cc1` [DI], the remaining activity at 192 µM came to 11.9%.

Take `Cc1ccc(C)c(OCC(=O)Nc2ccc(S(=O)(=O)Nc3nccs3)cc2)c1C` [DW]: the remaining activity at 192 µM was determined as 19%.

For the molecule `CCOc1ccc(C(=O)NC(=S)Nc2ccccc2C(=O)O)cc1Br` [DO], the remaining activity at 192 µM turned out to be 16.7%.

In the case of `CCCCOc1cccc(C(=O)Nc2ccc(S(=O)(=O)Nc3nnc(CC)s3)cc2)c1` [EP], the remaining activity at 192 µM was determined as 26%.

In the case of `CC1=NN(c2ccc(Cl)c(C(=O)O)c2)C(=O)/C1=C/c1cccc(OC(=O)c2cccs2)c1` [DB], the remaining activity at 192 µM turned out to be 6.9%.

On to `CCc1nnc(NS(=O)(=O)c2ccc(NCc3cc(Cl)cc(Cl)c3O)cc2)s1` [DH], for which the remaining activity at 192 µM stood at 11.9%.

For `COc1c(Cl)cc(Cl)cc1C(=O)NC(=S)Nc1ccc(C(=O)O)cc1` [EQ], the remaining activity at 192 µM amounted to 26%.

With `COc1ccc(N2CC(C(=O)Nc3ccc(S(=O)(=O)Nc4nccs4)cc3)CC2=O)cc1` (centres unmarked) [DA], the remaining activity at 192 µM was determined as 6.51%.

`C#CCSc1nc2sc3c(c2c(=O)n1C)CCC3` [EB]: the remaining activity at 192 µM amounted to 21%.

Regarding `COc1cc(-c2n[nH]c(=S)[nH]2)cc(OC)c1OC` [DU], the remaining activity at 192 µM amounted to 18%.

Regarding `Oc1ccccc1-c1n[nH]c(=S)n1Cc1ccccc1` [ES], the remaining activity at 192 µM came to 26.5%.

Take `O=C(O)c1ccc(Cl)c(NC(=S)NC(=O)c2cc(I)ccc2Cl)c1` [EJ]: the remaining activity at 192 µM was found to be 23.4%.

For the molecule `O=C1NN(c2ccc(Cl)c(Cl)c2)C(=O)/C1=C/c1cccc(OC(=O)c2cccs2)c1` [EG], the remaining activity at 192 µM was found to be 22.9%.

In the case of `Cc1ccc(S(=O)(=O)NCc2nc3ccccc3[nH]2)cc1` [DY], the remaining activity at 192 µM was 20%.

Turning to `Cc1ccc2c(Cl)c(C(=O)Nc3nnn[nH]3)sc2c1` [EL], the remaining activity at 192 µM is 23.8%.

Turning to `O=S(=O)(NCc1nc2ccccc2[nH]1)c1ccc(Cl)cc1` [EC], the remaining activity at 192 µM amounted to 21.7%.

On to `CCCCC(=O)NC(c1ccccc1Cl)c1cc([N+](=O)[O-])c2cccnc2c1O` (centres unmarked) [ET], for which the remaining activity at 192 µM was 26.5%.

As for `COC(=O)c1c(NC(=O)CCC(=O)O)sc2c1CCC(C(C)(C)C)C2` (centres unmarked) [DM], the remaining activity at 192 µM was found to be 14.4%.

As for `CC1=NN(c2ccc(S(N)(=O)=O)cc2)C(=O)/C1=C\c1ccc(OC(=O)c2cccs2)cc1` [DN], the remaining activity at 192 µM was determined as 16.7%.

Turning to `COc1cc(/C=C2/C(=O)N(c3ccc(Cl)c(C(=O)O)c3)N=C2C)ccc1OC(=O)c1cccs1` [DF], the remaining activity at 192 µM was found to be 10.1%.

As to `O=[N+]([O-])c1cc(C2Nc3ccc4ccccc4c3C3C=CCC32)ccc1O` (centres unmarked) [DE], the remaining activity at 192 µM was determined as 8.86%.

As to `O=C1NN(c2ccc(F)c(Cl)c2)C(=O)/C1=C\c1cccc(OC(=O)c2cccs2)c1` [CX], the remaining activity at 192 µM was found to be 4.3%.

For `NC(=O)c1ccccc1NC(=O)CN(c1cccc(Br)c1)S(=O)(=O)c1ccccc1` [DC], the remaining activity at 192 µM amounted to 7.5%.

On to `O=S(=O)(Nc1ccc(S(=O)(=O)Nc2nccs2)cc1)c1ccc(Br)cc1` [CZ], for which the remaining activity at 192 µM was 4.89%.

Take `CCOC(=O)c1ccc(N2NC(=O)/C(=C/c3ccc(OC(=O)c4cccs4)c(OC)c3)C2=O)cc1` [EW]: the remaining activity at 192 µM was 27.5%.

Turning to `CCOC(=O)c1ccc(N2NC(=O)/C(=C/c3cccc(OC(=O)c4cccs4)c3)C2=O)cc1` [DL], the remaining activity at 192 µM was determined as 14.3%.

With `Cc1ccc(NS(=O)(=O)c2ccc(F)cc2)c(NS(=O)(=O)c2ccc(F)cc2)c1` [DS], the remaining activity at 192 µM is 17.7%.

In the case of `O=C(NC(=S)Nc1ccc(Cl)c(C(=O)O)c1)c1ccc(-c2ccccc2)cc1` [EH], the remaining activity at 192 µM was 23%.

As to `COc1cc(/C=C2\C(=O)N(c3cccc(C(=O)O)c3)N=C2C)ccc1OC(=O)c1ccco1` [DX], the remaining activity at 192 µM stood at 19.7%.

For `Cc1cc(NS(=O)(=O)c2ccc(Nc3nc(-c4ccc(F)c(C)c4)cs3)cc2)no1` [EN], the remaining activity at 192 µM came out at 24.7%.
